Measured values from ChEMBL document CHEMBL3045442, “Fungicidal activity of pipernonaline, a piperidine alkaloid derived from long pepper, Piper longum L., against phytopathogenic fungi” (2001).

Tests used:
Assay type in all cases: functional
Set-up in all cases: scale not given: the % may be the effect or the level left
[1] = test system: Phytophthora infestans; experiment: Fungicidal activity against Phytophthora infestans infected tomato assessed as reduction in tomato late blight disease at 50 mg/l applied for 1 day prior to infection relative to untreated control
[2] = test system: Botrytis cinerea; experiment: Fungicidal activity against Botryotinia fuckeliana infected cucumber assessed as reduction in cucumber gray mold disease at 50 mg/l applied for 1 day prior to infection relative to untreated control
[3] = test system: Phytophthora infestans; experiment: Fungicidal activity against Phytophthora infestans infected tomato assessed as reduction in tomato late blight disease at 500 mg/l applied for 1 day prior to infection relative to untreated control
[4] = test system: Rhizoctonia solani; experiment: Fungicidal activity against Rhizoctonia solani infected rice assessed as reduction in rice sheath blight disease at 1000 mg/l applied for 1 day prior to infection relative to untreated control
[5] = test system: Botrytis cinerea; experiment: Fungicidal activity against Botryotinia fuckeliana infected cucumber assessed as reduction in cucumber gray mold disease at 500 mg/l applied for 1 day prior to infection relative to untreated control
[6] = test system: Puccinia recondita; experiment: Fungicidal activity against Puccinia recondita infected wheat assessed as reduction in wheat leaf rust disease at 1000 mg/l applied for 1 day prior to infection relative to untreated control
[7] = test system: Rhizoctonia solani; experiment: Fungicidal activity against Rhizoctonia solani infected rice assessed as reduction in rice sheath blight disease at 500 mg/l applied for 1 day prior to infection relative to untreated control
[8] = test system: Pyricularia grisea; experiment: Fungicidal activity against Magnaporthe grisea infected rice assessed as reduction in rice blast disease at 1000 mg/l applied for 1 day prior to infection relative to untreated control
[9] = test system: Blumeria graminis; experiment: Fungicidal activity against Blumeria graminis infected barley assessed as reduction in powdery mildew disease at 500 mg/l applied for 1 day prior to infection relative to untreated control
[10] = test system: Botrytis cinerea; experiment: Fungicidal activity against Botryotinia fuckeliana infected cucumber assessed as reduction in cucumber gray mold disease at 1000 mg/l applied for 1 day prior to infection relative to untreated control
[11] = test system: Puccinia recondita; experiment: Fungicidal activity against Puccinia recondita infected wheat assessed as reduction in wheat leaf rust disease at 500 mg/l applied for 1 day prior to infection relative to untreated control
[12] = test system: Blumeria graminis; experiment: Fungicidal activity against Blumeria graminis infected barley assessed as reduction in powdery mildew disease at 1000 mg/l applied for 1 day prior to infection relative to untreated control
[13] = test system: Pyricularia grisea; experiment: Fungicidal activity against Magnaporthe grisea infected rice assessed as reduction in rice blast disease at 500 mg/l applied for 1 day prior to infection relative to untreated control
[14] = test system: Phytophthora infestans; experiment: Fungicidal activity against Phytophthora infestans infected tomato assessed as reduction in tomato late blight disease at 1000 mg/l applied for 1 day prior to infection relative to untreated control
[15] = test system: Pyricularia grisea; experiment: Fungicidal activity against Magnaporthe grise infected rice assessed as reduction in rice blast disease at 250 mg/l applied for 1 day prior to infection relative to untreated control
[16] = test system: Phytophthora infestans; experiment: Fungicidal activity against Phytophthora infestans infected tomato assessed as reduction in tomato late blight disease at 250 mg/l applied for 1 day prior to infection relative to untreated control
[17] = test system: Blumeria graminis; experiment: Fungicidal activity against Blumeria graminis infected barley assessed as reduction in powdery mildew disease at 250 mg/l applied for 1 day prior to infection relative to untreated control
[18] = test system: Botrytis cinerea; experiment: Fungicidal activity against Botryotinia fuckeliana infected cucumber assessed as reduction in cucumber gray mold disease at 250 mg/l applied for 1 day prior to infection relative to untreated control
[19] = test system: Puccinia recondita; experiment: Fungicidal activity against Puccinia recondita infected wheat assessed as reduction in wheat leaf rust disease at 250 mg/l applied for 1 day prior to infection relative to untreated control
[20] = test system: Rhizoctonia solani; experiment: Fungicidal activity against Rhizoctonia solani infected rice assessed as reduction in rice sheath blight disease at 250 mg/l applied for 1 day prior to infection relative to untreated control

## N#Cc1c(Cl)c(Cl)c(Cl)c(C#N)c1Cl [CHLOROTHALONIL]
[1]
  Activity: 95%

## CN(C)S(=O)(=O)N(SC(F)(Cl)Cl)c1ccccc1 [DICHLOFLUANID]
[2]
  Activity: 92%

## C=CCc1ccc(O)c(OC)c1 [EUGENOL]
[3]
  Activity: 0%
[4]
  Activity: 0%
[5]
  Activity: 0%
[6]
  Activity: 0%
[7]
  Activity: 0%
[8]
  Activity: 0%
[9]
  Activity: 0%
[10]
  Activity: 0%
[11]
  Activity: 0%
[12]
  Activity: 5%
[13]
  Activity: 0%
[14]
  Activity: 0%

## O=C(CCCC/C=C/c1ccc2c(c1)OCO2)N1CCCCC1 [PIPERETTINE]
[3]
  Activity: 0%
[4]
  Activity: 0%
[5]
  Activity: 0%
[6]
  Activity: 0%
[7]
  Activity: 0%
[8]
  Activity: 0%
[9]
  Activity: 40%
[10]
  Activity: 0%
[11]
  Activity: 0%
[12]
  Activity: 60%
[13]
  Activity: 0%
[14]
  Activity: 0%

## O=C(/C=C/C=C/c1ccc2c(c1)OCO2)N1CCCCC1 [PIPERINE]
[3]
  Activity: 0%
[4]
  Activity: 0%
[5]
  Activity: 0%
[6]
  Activity: 0%
[7]
  Activity: 0%
[8]
  Activity: 0%
[9]
  Activity: 0%
[10]
  Activity: 0%
[11]
  Activity: 0%
[12]
  Activity: 0%
[13]
  Activity: 0%
[14]
  Activity: 0%

## O=C(/C=C/CCCC/C=C/c1ccc2c(c1)OCO2)N1CCCCC1 [PIPERNONALINE]
[15]
  Activity: 26%
[16]
  Activity: 55%
[3]
  Activity: 80%
[4]
  Activity: 35%
[5]
  Activity: 0%
[6]
  Activity: 100%
[7]
  Activity: 0%
[17]
  Activity: 0%
[8]
  Activity: 71%
[9]
  Activity: 0%
[10]
  Activity: 0%
[11]
  Activity: 91%
[18]
  Activity: 0%
[12]
  Activity: 0%
[13]
  Activity: 51%
[14]
  Activity: 91%
[19]
  Activity: 80%
[20]
  Activity: 0%

## COc1cc(/C=C/C(=O)N2CCC=CC2=O)cc(OC)c1OC [PIPLARTINE]
[3]
  Activity: 0%
[4]
  Activity: 0%
[5]
  Activity: 0%
[6]
  Activity: 0%
[7]
  Activity: 0%
[8]
  Activity: 10%
[9]
  Activity: 0%
[10]
  Activity: 0%
[11]
  Activity: 0%
[12]
  Activity: 0%
[13]
  Activity: 0%
[14]
  Activity: 0%
